The source of these data is patent publication US20250084056A1, “SUBSTITUTED OXOISOINDOLINYL PIPERIDINE-2,6-DIONE COMPOUNDS” (BRISTOL-MYERS SQUIBB COMPANY, priority 2023, published 2025).

The target of one test is Cyclin E1 (Homo sapiens, UniProt P24864+Q96SW2). The experiment in a line: Cellular degradation of Cyclin E1 (Western blot) in HCC1569 cells. Format: cell-based. The arrangement: endogenous in cells; host or cells: HCC1569 (ATCC CRL-2330). Conditions: HCC1569 cancer cells, 24 h, FIG. 1A. On the procedure:
(§1) The assay measured the ability of the compound to degrade Cyclin E1, inhibit RB phosphorylation, and to determine the selectivity against degradation of GSPT1 in cancer cells in vitro. HCC1569 cells (ATCC #CRL-2330) were cultured in RPMI media (Gibco, catalog A104910) supplemented with 10% FBS (Gibco, catalog 10091148). Cells were plated in tissue culture-treated 6 well plates at a density of 0.5 million cells per well in 2 mL media. The cells were then incubated overnight in a cell culture incubator (5% CO2 and 37° C.) and allowed to attach to the plate. The following day cells were dosed with compounds at the desired concentrations. Compounds were first resuspended in DMSO to make 10 mM stock, and 20 μM stock was prepared by diluting 10 mM stock in culture media. […] Total protein concentration was measured using a BCA assay kit (Thermo Scientific, cat #P123227). […] Protein was then detected by incubating blots with 2 mL of HRP detection reagent (Thermo scientific cat #A38556) for one minute at room temperature. Excess reagent was drained and gently removed on a Kimwipe and the chemiluminescence signal was detected using Fluorchem imaging system. […] Relative quantification of western blots was performed using ImageJ software, data was then normalized to loading control (β-Actin) first and then to the DMSO-treated sample. […]

In a further test the target is GSPT1 (Homo sapiens, UniProt P15170+Q96SW2). In words: Degradation of GSPT1 (Western blot) in HCC1569 cells. Format: cell-based. The arrangement: endogenous in cells; host or cells: HCC1569 (ATCC CRL-2330). Conditions: HCC1569 cancer cells, 24 h, up to a concentration of 10 μM, FIG. 1C. As to the method:
as §1
On the technique in general: In western blotting, separated proteins are transferred to a membrane and probed.

Test [1] concerns HCC1569 breast carcinoma xenograft model. The experiment in a line: In vivo xenograft tumor efficacy study, HCC1569. Also noted: species or system mice. Conditions: HCC1569 xenografts, repeated dosing. As to the method:
(§2) The anti-cancer efficacy of Example 35 was evaluated in xenograft models by measuring the reduction in tumor volume in animals treated with Example 35 compared to vehicle control animals. First, 5-10×10^6 tumor cells/animal in a 1:1 Matrigel® mix (0.2 mL total volume) were injected subcutaneously into female NSG mice (for NIHOVCAR3) and SCID mice (for HCC1569). Both strains of mice were purchased from Jackson Laboratory. Once tumors reached ˜150-200 mm^3, animals were randomized into groups of 8-10 animals/treatment arm for efficacy studies. Example 35 was administered via oral gavage (PO) at indicated doses and regimens (Table 7). Tumor growth and body weight were measured twice/week during the course of the study to evaluate efficacy and signs of toxicity.
(§3) Example 35 was formulated in 10% ethanol, 10% Vitamin E—TPGS, 30% propylene glycol, 50% PEG400 and administered by oral gavage (final volume 0.2 mL) at the doses indicated in Table 7. […]
(§4) The efficacy for each treated arm at different dose levels were calculated using the following formula: % ΔT/ΔC=[(TVT−TVT0)/(TVC−TVC0)]×100%. […] The percentage of tumor growth inhibition was calculated from the formula: % TGI=[100%−(% ΔT/ΔC)]. […]
(§5) Example 35 was evaluated for in vivo single-agent efficacy against the HCC1569 breast carcinoma xenograft model and NIHOVCAR3 ovarian adenocarcinoma xenograft model.

Test [2] concerns NIHOVCAR3 ovarian adenocarcinoma xenograft model. The experiment in a line: In vivo xenograft tumor efficacy study, NIHOVCAR3. The arrangement: species or system mice. Conditions: OVCAR3 xenografts, repeated dosing. On the procedure: as §2, §3, §4, §5

Cyclin E1, sequence (P24864 whole entry): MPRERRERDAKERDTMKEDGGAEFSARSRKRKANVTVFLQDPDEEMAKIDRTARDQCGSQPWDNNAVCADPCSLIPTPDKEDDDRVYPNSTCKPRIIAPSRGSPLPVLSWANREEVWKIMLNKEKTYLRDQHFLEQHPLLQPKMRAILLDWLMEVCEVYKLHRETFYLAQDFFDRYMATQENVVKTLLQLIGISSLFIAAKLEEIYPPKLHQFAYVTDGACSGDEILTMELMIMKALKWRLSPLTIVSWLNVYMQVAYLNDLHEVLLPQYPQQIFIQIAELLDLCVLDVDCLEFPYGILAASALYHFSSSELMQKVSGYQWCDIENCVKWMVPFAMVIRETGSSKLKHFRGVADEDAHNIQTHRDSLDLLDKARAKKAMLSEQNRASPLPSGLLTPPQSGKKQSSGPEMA
Cyclin E1, sequence (Q96SW2 whole entry): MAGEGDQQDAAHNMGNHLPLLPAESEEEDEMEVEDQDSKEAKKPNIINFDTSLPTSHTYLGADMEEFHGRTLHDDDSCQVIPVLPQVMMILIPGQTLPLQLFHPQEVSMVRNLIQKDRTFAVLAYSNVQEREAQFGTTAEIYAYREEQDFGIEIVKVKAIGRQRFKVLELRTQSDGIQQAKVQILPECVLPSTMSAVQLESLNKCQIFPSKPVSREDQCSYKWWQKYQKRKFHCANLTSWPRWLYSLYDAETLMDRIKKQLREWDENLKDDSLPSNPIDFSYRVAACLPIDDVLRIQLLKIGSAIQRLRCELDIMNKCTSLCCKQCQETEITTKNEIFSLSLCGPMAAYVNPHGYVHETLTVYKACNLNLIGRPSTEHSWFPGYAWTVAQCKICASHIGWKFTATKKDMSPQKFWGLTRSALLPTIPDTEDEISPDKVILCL
Cyclin E1, sequence (Q16531 whole entry partner): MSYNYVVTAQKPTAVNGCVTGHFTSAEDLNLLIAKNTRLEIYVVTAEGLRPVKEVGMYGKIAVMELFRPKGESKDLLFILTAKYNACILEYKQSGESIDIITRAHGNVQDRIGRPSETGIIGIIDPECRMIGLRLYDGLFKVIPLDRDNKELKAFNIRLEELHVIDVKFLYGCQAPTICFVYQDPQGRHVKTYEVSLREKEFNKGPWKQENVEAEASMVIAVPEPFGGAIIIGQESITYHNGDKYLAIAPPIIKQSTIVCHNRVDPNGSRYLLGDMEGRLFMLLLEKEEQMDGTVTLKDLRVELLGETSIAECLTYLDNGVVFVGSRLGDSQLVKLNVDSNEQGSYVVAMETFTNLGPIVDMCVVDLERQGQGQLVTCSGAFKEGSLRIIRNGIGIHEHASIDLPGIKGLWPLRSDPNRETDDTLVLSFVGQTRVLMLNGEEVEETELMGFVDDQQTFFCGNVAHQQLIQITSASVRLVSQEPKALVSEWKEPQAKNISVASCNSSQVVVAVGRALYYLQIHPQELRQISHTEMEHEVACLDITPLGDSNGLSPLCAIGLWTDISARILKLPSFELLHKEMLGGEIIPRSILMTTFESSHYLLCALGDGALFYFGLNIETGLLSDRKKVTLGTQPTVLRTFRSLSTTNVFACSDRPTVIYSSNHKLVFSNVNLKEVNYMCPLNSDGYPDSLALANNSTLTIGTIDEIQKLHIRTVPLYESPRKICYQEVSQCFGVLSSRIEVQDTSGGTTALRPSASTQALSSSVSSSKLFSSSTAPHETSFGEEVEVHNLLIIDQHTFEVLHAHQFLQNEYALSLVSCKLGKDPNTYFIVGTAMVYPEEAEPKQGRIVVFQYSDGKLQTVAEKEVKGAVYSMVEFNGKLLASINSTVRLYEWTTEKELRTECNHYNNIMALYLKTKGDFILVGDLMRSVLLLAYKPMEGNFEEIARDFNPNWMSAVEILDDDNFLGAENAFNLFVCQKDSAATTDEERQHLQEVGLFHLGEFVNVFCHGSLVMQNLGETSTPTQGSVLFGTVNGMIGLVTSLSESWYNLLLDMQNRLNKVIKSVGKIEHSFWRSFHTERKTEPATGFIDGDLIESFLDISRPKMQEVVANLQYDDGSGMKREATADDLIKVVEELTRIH
GSPT1, sequence (P15170 whole entry): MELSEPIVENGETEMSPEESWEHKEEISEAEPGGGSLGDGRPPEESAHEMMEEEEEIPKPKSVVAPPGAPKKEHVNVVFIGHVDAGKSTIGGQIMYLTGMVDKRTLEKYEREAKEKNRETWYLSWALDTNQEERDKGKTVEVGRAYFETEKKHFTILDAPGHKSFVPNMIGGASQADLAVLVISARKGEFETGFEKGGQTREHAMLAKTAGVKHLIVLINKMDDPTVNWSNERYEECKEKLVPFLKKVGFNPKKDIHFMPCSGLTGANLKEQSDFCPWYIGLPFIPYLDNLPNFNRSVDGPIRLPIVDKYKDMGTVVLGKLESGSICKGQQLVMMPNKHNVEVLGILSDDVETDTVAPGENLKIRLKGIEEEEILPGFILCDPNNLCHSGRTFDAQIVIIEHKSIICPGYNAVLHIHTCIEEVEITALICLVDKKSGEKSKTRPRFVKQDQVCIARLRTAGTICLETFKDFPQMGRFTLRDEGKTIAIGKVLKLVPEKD
GSPT1, sequence (Q96SW2 whole entry): as the sequence (Q96SW2 whole entry) above
GSPT1, sequence (Q16531 whole entry partner): as the sequence (Q16531 whole entry partner) above

As to `COc1c(COC(=O)Nc2ccc(Oc3ccc(F)c(F)c3)cc2)ccc2c1C(=O)N([C@H]1CCC(=O)NC1=O)C2` (single isomer, unassigned) [Example 35, {2-[(3 S)-2,6-dioxopiperidin-3-yl]-4-methoxy-3-oxo-2,3-dihydro-1H-isoindol-5-yl}methyl N-[4-(3,4-difluorophenoxy)phenyl]carbamate], the “degradation of Cyclin E1 protein” value on Cyclin E1 is “induced degradation of Cyclin E1 protein in a dose dependent manner”. In addition, the “degradation of GSPT1 protein” value on GSPT1 was “did not significantly degrade GSPT1 protein”. Further, the anti-tumor activity entry in test [1] and in test [2] was “dose-dependent anti-tumor activity” in each case.
